Experimental data reported in PubChem BioAssay AID1963872 (Molecular Pharmacology Branch, DTP, NCI, 2024).

Tested on: KRAS patient-derived spheroids with HUVEC/MSC, viability
Test: Anticancer human tumor 519858-162-T-J1-PDC patient-derived colon adenocarcinoma cell line growth inhibition [KRAS2]
Conditions: for IC50: curve of first compound; for viability, T/C: stronger effect = lower value
Outline: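 Combination screen of spheroid viability in tumor-cell co-cultures with endothelial (HUVEC) and mesenchymal stem cell stroma. Each agent was tested in half-log dilutions, topping at clinical Cmax or at 10 microM without a known Cmax.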

[1] = second compound 0.0316 µM, first compound 0.0316 µM
[2] = second compound 0.0316 µM, first compound 0.1 µM
[3] = second compound 0.1 µM, first compound 0.0316 µM
[4] = second compound 0.1 µM, first compound 0.1 µM
[5] = second compound 0.316 µM, first compound 0.0316 µM
[6] = second compound 0.316 µM, first compound 0.1 µM
[7] = second compound 1 µM, first compound 0.0316 µM
[8] = second compound 1 µM, first compound 0.1 µM
[9] = second compound 3.16 µM, first compound 0.0316 µM
[10] = second compound 3.16 µM, first compound 0.1 µM
[11] = second compound 0.1 µM, first compound 0.316 µM
[12] = second compound 0.1 µM, first compound 1 µM
[13] = second compound 0.1 µM, first compound 3.16 µM
[14] = second compound 0.1 µM, first compound 10 µM
[15] = second compound 0.316 µM, first compound 0.316 µM
[16] = second compound 0.316 µM, first compound 1 µM
[17] = second compound 0.316 µM, first compound 3.16 µM
[18] = second compound 0.316 µM, first compound 10 µM
[19] = second compound 1 µM, first compound 0.316 µM
[20] = second compound 1 µM, first compound 1 µM
[21] = second compound 1 µM, first compound 3.16 µM
[22] = second compound 1 µM, first compound 10 µM
[23] = second compound 3.16 µM, first compound 0.316 µM
[24] = second compound 3.16 µM, first compound 1 µM
[25] = second compound 3.16 µM, first compound 3.16 µM
[26] = second compound 3.16 µM, first compound 10 µM
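Also: compound exposure lasted seven days before readout.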
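For viability, T/C in this document: 100% = DMSO vehicle control viability.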

Which results are given for `CC(C)n1nc(-c2ccc3oc(N)nc3c2)c2c(N)ncnc21` + C=CC(=O)N1CCN(c2nc(OCC3CCCN3C)nc3c2CCN(c2cccc4cccc(C)c24)C3)CC1CC#N?
IC50 (second compound 0.0316 µM): > 100 nM; IC50 (second compound 0.1 µM): 35 nM; IC50 (second compound 0.316 µM): 79.8 nM; IC50 (second compound 1 µM): > 100 nM; IC50 (second compound 3.16 µM): 55.7 nM; viability, T/C (second compound 0.0316 µM, first compound 0.000316 µM): 97.9%; viability, T/C (second compound 0.0316 µM, first compound 0.001 µM): 82%; viability, T/C (second compound 0.0316 µM, first compound 0.00316 µM): 81.8%; viability, T/C (second compound 0.0316 µM, first compound 0.01 µM): 63.5%; viability, T/C [1]: 61.8%; viability, T/C [2]: 57.7%; viability, T/C (second compound 0.1 µM, first compound 0.000316 µM): 103%; viability, T/C (second compound 0.1 µM, first compound 0.001 µM): 104%; viability, T/C (second compound 0.1 µM, first compound 0.00316 µM): 74.3%; viability, T/C (second compound 0.1 µM, first compound 0.01 µM): 70.2%; viability, T/C [3]: 50.9%; viability, T/C [4]: 39.2%; viability, T/C (second compound 0.316 µM, first compound 0.000316 µM): 74.6%; viability, T/C (second compound 0.316 µM, first compound 0.001 µM): 83.8%; viability, T/C (second compound 0.316 µM, first compound 0.00316 µM): 78.3%; viability, T/C (second compound 0.316 µM, first compound 0.01 µM): 66.8%; viability, T/C [5]: 64.4%; viability, T/C [6]: 46.7%; viability, T/C (second compound 1 µM, first compound 0.000316 µM): 81%; viability, T/C (second compound 1 µM, first compound 0.001 µM): 82.7%; viability, T/C (second compound 1 µM, first compound 0.00316 µM): 78.7%; viability, T/C (second compound 1 µM, first compound 0.01 µM): 68.2%; viability, T/C [7]: 84.6%; viability, T/C [8]: 66.2%; viability, T/C (second compound 3.16 µM, first compound 0.000316 µM): 80.6%; viability, T/C (second compound 3.16 µM, first compound 0.001 µM): 76.4%; viability, T/C (second compound 3.16 µM, first compound 0.00316 µM): 76%; viability, T/C (second compound 3.16 µM, first compound 0.01 µM): 67%; viability, T/C [9]: 63%; viability, T/C [10]: 38.6%

Which IC50 (second compound 0.1 µM) does the source give for `CC1(C)CCC(CN2CCN(c3ccc(C(=O)NS(=O)(=O)c4ccc(NCC5CCOCC5)c([N+](=O)[O-])c4)c(Oc4cnc5[nH]ccc5c4)c3)CC2)=C(c2ccc(Cl)cc2)C1` + CC1OCC2(CCN(c3cnc(Sc4ccnc(N)c4Cl)c(N)n3)CC2)C1N here?
Its IC50 is over 10000 nM.

And the IC50 (second compound 0.316 µM)?
Its IC50 is over 10000 nM.

And the IC50 (second compound 1 µM)?
Its IC50 is 4320 nM.

What about the IC50 (second compound 3.16 µM) of the same compound?
Its IC50 is 2980 nM.

What about the IC50 (second compound 10 µM) of the same compound?
The IC50 was 3650 nM.

What about the viability, T/C [3] of the same compound?
Its viability, T/C is 81.4%.

What about the viability, T/C [4] of the same compound?
Its viability, T/C is 93.4%.

What about the viability, T/C [11] of the same compound?
Its viability, T/C is 91.2%.

What about the viability, T/C [12] of the same compound?
The viability, T/C was 82.3%.

And the viability, T/C [13]?
The viability, T/C was 72.6%.

And the viability, T/C [14]?
The viability, T/C was 78.2%.

And the viability, T/C [5]?
Its viability, T/C is 72.6%.

And the viability, T/C [6]?
Its viability, T/C is 71.3%.

What about the viability, T/C [15] of the same compound?
The viability, T/C was 89.1%.

And the viability, T/C [16]?
Its viability, T/C is 69.5%.

What about the viability, T/C [17] of the same compound?
Its viability, T/C is 67.8%.

And the viability, T/C [18]?
The viability, T/C was 57.4%.

And the viability, T/C [7]?
The viability, T/C was 65.7%.

What about the viability, T/C [8] of the same compound?
The viability, T/C was 74.5%.

What about the viability, T/C [19] of the same compound?
Its viability, T/C is 42.8%.

And the viability, T/C [20]?
Its viability, T/C is 58.7%.

What about the viability, T/C [21] of the same compound?
Its viability, T/C is 59.9%.

What about the viability, T/C [22] of the same compound?
Its viability, T/C is 23.5%.

What about the viability, T/C [9] of the same compound?
The viability, T/C was 48.8%.

And the viability, T/C [10]?
The viability, T/C was 58.4%.

And the viability, T/C [23]?
The viability, T/C was 61.7%.

What about the viability, T/C [24] of the same compound?
Its viability, T/C is 62.8%.

And the viability, T/C [25]?
Its viability, T/C is 60.2%.

And the viability, T/C [26]?
The viability, T/C was 29.9%.

What about the viability, T/C (second compound 10 µM, first compound 0.0316 µM) of the same compound?
Its viability, T/C is 89.7%.

And the viability, T/C (second compound 10 µM, first compound 0.1 µM)?
The viability, T/C was 66.9%.

And the viability, T/C (second compound 10 µM, first compound 0.316 µM)?
Its viability, T/C is 74.8%.

What about the viability, T/C (second compound 10 µM, first compound 1 µM) of the same compound?
Its viability, T/C is 61.6%.

What about the viability, T/C (second compound 10 µM, first compound 3.16 µM) of the same compound?
Its viability, T/C is 60.6%.

What about the viability, T/C (second compound 10 µM, first compound 10 µM) of the same compound?
The viability, T/C was 23.5%.

Which results are given for `Cn1nccc1Nc1nccc(-c2cc3c(s2)C(C)(C)N(CCN2CCOCC2)C3=O)n1` + C=CC(=O)N1CCN(c2nc(OCC3CCCN3C)nc3c2CCN(c2cccc4cccc(C)c24)C3)CC1CC#N?
IC50 (second compound 0.0316 µM): 4030 nM; IC50 (second compound 0.1 µM): 3030 nM; IC50 (second compound 0.316 µM): 1690 nM; IC50 (second compound 1 µM): 693 nM; IC50 (second compound 3.16 µM): < 31.6 nM; viability, T/C [1]: 78.1%; viability, T/C [2]: 75.3%; viability, T/C (second compound 0.0316 µM, first compound 0.316 µM): 82.8%; viability, T/C (second compound 0.0316 µM, first compound 1 µM): 68.4%; viability, T/C (second compound 0.0316 µM, first compound 3.16 µM): 56.6%; viability, T/C (second compound 0.0316 µM, first compound 10 µM): 28.1%; viability, T/C [3]: 76.3%; viability, T/C [4]: 87.3%; viability, T/C [11]: 94.7%; viability, T/C [12]: 60.1%; viability, T/C [13]: 53.7%; viability, T/C [14]: 25.3%; viability, T/C [5]: 77.7%; viability, T/C [6]: 74.7%; viability, T/C [15]: 72%; viability, T/C [16]: 53.3%; viability, T/C [17]: 44.8%; viability, T/C [18]: 32.8%; viability, T/C [7]: 71.6%; viability, T/C [8]: 57.1%; viability, T/C [19]: 54%; viability, T/C [20]: 53%; viability, T/C [21]: 36.7%; viability, T/C [22]: 27.1%; viability, T/C [9]: 47.6%; viability, T/C [10]: 54.6%; viability, T/C [23]: 39.8%; viability, T/C [24]: 30%; viability, T/C [25]: 41.5%; viability, T/C [26]: 17.6%
